Legend:
Format in all cases: biochemical
Btk = molecular target: T1, Btk (Homo sapiens, UniProt Q06187); test: Z'-Lyte FRET kinase assay (Invitrogen), Btk; conditions: read-out: IC50, activity toward kinase Btk
T1 construct: purchased Invitrogen (assay run by Invitrogen)

Kdr = molecular target: T2, Kdr (Homo sapiens, UniProt P35968); test: Z'-Lyte FRET kinase assay (Invitrogen), Kdr; conditions: read-out: IC50, activity toward kinase Kdr
T2 construct: purchased Invitrogen (assay run by Invitrogen)
T2 sequence (P35968 20-1356): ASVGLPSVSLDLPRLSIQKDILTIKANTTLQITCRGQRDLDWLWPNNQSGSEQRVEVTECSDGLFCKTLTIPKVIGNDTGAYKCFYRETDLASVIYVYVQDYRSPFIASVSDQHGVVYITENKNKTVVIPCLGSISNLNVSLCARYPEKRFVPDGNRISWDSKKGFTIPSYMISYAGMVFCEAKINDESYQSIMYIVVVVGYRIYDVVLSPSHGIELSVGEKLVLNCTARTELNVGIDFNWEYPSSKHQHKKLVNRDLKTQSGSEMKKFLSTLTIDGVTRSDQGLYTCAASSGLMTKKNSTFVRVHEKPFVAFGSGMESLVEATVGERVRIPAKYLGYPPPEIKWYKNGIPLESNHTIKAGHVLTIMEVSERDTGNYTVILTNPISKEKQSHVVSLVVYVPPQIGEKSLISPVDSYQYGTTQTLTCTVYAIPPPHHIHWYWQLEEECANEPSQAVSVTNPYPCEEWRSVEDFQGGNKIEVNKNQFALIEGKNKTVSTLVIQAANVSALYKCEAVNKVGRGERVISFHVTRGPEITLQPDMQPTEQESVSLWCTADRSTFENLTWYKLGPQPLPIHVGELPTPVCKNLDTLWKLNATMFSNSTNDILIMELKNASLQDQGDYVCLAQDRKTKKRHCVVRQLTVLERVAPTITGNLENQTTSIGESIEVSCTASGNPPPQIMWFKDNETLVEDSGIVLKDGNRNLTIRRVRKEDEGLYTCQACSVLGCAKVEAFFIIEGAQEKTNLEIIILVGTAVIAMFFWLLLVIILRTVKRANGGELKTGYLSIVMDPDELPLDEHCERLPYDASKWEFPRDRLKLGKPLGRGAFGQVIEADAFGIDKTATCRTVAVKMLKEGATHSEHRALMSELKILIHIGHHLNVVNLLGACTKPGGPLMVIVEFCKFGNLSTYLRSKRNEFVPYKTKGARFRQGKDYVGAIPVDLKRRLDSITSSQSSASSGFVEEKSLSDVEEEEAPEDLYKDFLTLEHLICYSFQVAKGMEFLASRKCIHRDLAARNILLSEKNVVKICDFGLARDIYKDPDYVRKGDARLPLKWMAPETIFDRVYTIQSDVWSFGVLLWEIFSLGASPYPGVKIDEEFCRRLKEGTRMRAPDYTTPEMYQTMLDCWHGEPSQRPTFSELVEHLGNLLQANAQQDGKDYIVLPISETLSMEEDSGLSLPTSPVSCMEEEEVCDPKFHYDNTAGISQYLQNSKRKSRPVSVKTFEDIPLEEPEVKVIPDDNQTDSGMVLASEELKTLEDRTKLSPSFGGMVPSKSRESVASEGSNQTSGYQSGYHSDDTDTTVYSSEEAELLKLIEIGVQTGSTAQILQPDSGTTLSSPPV

Yes = molecular target: T3, Yes (Homo sapiens, UniProt P07947); test: Z'-Lyte FRET kinase assay (Invitrogen), Yes; conditions: read-out: IC50, activity toward kinase Yes
T3 construct: purchased Invitrogen (Carlsbad, Calif.), screening service
T3 sequence (P07947 whole entry): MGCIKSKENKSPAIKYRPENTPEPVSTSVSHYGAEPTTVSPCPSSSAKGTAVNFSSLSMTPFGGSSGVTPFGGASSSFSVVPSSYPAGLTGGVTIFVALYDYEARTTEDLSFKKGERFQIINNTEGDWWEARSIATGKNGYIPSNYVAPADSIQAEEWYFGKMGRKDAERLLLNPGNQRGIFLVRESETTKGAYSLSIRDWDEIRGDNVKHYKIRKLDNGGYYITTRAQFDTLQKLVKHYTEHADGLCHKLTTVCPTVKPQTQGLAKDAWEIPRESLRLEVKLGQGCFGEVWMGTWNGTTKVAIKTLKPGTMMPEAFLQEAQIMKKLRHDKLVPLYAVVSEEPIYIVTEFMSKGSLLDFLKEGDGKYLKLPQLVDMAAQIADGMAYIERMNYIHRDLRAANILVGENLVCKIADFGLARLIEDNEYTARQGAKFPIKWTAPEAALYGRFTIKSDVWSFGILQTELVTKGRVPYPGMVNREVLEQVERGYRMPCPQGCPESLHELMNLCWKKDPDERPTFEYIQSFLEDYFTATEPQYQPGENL
Method in brief: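 10 μM ATP, 2 μM peptide, 1% DMSO final; HEPES pH 7.5 buffer with MgCl2/EGTA/BRIJ-35. Kinase rxn 1 h RT, protease development 1 h RT, stop, read donor/acceptor ratio. Compound titrated.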

Abl = molecular target: T4, Abl (Homo sapiens, UniProt P00519); test: AlphaScreen kinase assay, Abl; conditions: read-out: activity toward kinase Abl, IC50
T4 construct: P1121. pET-SPEC BI-PTP Abl G227-V515-X; His6 (N); made in house; host or cells: E. coli (PTP1B co-expressed)
T4 sequence (P00519 with tags, fused parts or gaps): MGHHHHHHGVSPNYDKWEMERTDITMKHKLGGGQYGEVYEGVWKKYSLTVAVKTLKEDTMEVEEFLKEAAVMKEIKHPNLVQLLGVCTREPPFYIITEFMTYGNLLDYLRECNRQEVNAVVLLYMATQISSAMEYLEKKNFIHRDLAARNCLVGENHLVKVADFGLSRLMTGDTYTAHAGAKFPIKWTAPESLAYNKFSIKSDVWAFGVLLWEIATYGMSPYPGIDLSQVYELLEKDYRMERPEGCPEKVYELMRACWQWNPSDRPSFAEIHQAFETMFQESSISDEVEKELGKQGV
Method in brief: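 Stock 20 mM compound in DMSO, diluted 1:3 serially to 8 final concentrations. Kinase phosphorylates biotinylated peptide; donor (streptavidin) and acceptor (anti-phospho antibody) beads then associate. Reduced acceptor emission indicates inhibition.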

EphB2 = molecular target: T5, EphB2 (Homo sapiens, UniProt P29323); test: Z'-Lyte FRET kinase assay (Invitrogen), EphB2; conditions: read-out: IC50, activity toward kinase EphB2
T5 construct: purchased Invitrogen (assay run by Invitrogen)
T5 sequence (P29323 19-1055): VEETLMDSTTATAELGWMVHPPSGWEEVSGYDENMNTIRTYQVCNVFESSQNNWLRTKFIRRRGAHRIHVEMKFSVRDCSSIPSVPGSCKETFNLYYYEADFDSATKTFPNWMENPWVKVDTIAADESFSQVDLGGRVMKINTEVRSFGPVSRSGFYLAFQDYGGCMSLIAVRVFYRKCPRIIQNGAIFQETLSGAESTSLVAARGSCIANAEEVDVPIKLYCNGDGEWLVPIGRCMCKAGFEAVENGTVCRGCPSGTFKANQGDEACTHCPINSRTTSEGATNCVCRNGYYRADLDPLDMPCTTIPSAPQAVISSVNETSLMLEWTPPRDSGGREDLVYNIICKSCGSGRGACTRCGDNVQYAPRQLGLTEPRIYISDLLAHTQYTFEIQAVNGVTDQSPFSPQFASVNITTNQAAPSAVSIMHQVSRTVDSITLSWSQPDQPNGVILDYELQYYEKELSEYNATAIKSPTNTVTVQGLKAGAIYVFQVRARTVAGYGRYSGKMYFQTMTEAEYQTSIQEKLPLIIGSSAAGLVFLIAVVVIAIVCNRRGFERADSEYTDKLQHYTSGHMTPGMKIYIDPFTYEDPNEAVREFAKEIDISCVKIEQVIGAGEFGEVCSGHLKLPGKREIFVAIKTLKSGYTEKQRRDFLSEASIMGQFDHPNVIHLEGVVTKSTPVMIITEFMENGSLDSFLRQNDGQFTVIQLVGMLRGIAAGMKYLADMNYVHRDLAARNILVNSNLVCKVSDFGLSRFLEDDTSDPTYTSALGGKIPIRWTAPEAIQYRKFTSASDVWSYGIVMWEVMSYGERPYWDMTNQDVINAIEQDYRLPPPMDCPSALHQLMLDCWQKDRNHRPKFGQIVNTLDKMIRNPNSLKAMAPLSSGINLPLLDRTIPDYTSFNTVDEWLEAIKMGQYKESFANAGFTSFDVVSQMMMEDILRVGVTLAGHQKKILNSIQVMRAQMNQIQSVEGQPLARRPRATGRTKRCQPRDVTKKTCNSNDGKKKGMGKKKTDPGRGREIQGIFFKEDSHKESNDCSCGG
Excerpt: The effect of potential modulators of kinase activity can be measured in a variety of different assays known in the art. For example, direct radiometric, indirect FRET or AlphaScreen assays may be used to assess the level of phosphorylation of a substrate in the presence of test compounds in order to determine the inhibitory affect of the compound on the kinase. Invitrogen (Carlsbad, Calif.) uses a FRET based assay for Btk, EGFR, EphB2, Flt3, lrak4, Kdr, MAP2K1, MAPKAPK2, PDGFRB, PKC theta, Stk6 and Yes. For these assays, compounds of the invention were screened by Invitrogen using Z′-Lyte™ kinase assay.
Briefly, the Invitrogen kinase assay involves use of a specific peptide substrate optimized for each kinase, containing a fluorophore at each end that make up the FRET pair. The peptide sensitivity to proteolytic cleavage depends on phosphorylation of the peptide. Non-phosphorylated peptide is cleaved by a protease while peptide phosphorylated by the kinase is not cleaved. Cleavage of the peptide disrupts the FRET between the donor (coumarin) and acceptor (fluorescein) fluorophores, resulting in an increase in the ratio of donor emission to acceptor emission. The emission ratio of coumarin to fluorescein is used to assess the reaction progress. The extent of phosphorylation is determined from the emission ratio, which is low when the kinase is active (phosphorylated peptide is not cleaved, FRET pair connected) or higher for inhibited kinase (non-phosphorylated peptide is cleaved, FRET pair separated). Thus, the assay involves a kinase reaction in the presence of varying concentrations of a given compound, a development reaction with site specific protease, and detection of the fluorescent emission ratio of coumarin and fluorscein. […] Reaction conditions for each kinase are determined to provide optimal reaction times, incubation temperature, kinase and ATP concentrations. Test samples are made up in 1× kinase buffer (50 mM HEPES pH 7.5, 50 mM MgCl2, 5 mM EGTA, 0.05% BRIJ-35) and compound at desired concentration prepared in DMSO such that the final DMSO is 1%. […] Typically, assay plates are prepared to 10 μl final volume per sample, adding 2.5 μl of compound at 4× the desired concentration in 4% DMSO (serial dilution of compound provides concentration curve), 5 μl of the desired kinase mixed with Z′-LYTE™ peptide substrate (2× in 2× kinase buffer, final peptide at 2 μM), and 2.5 μl of 4×ATP solution. All kinase except for MAP2K1 were at 10 μM ATP in the kinase reaction, while MAP2K1 was at 100 μM. Samples are mixed and the kinase reaction is incubated 1 hour at room temperature, after which 5 μl of development solution is added and mixed. After incubation for another 1 hour at room temperature, 5 μl of stop reagent is added to each sample and mixed. The fluorescence signals are measured to determine the emission ratio.

B-Raf V600E = molecular target: T6, B-Raf V600E (Homo sapiens, UniProt P15056, V600E); test: AlphaScreen kinase assay, B-Raf V600E; conditions: read-out: IC50, activity toward kinase B-Raf V600E
T6 construct: P4254. pFastBacBD-CDC37 BRAF D437-K722-X, V600E; His6 with pFastBac HT leader (TEV site) (N); made in house; host or cells: Sf9 (baculovirus; chaperone CDC37 co-expressed)
T6 sequence (P15056 with tags, fused parts or gaps V600E): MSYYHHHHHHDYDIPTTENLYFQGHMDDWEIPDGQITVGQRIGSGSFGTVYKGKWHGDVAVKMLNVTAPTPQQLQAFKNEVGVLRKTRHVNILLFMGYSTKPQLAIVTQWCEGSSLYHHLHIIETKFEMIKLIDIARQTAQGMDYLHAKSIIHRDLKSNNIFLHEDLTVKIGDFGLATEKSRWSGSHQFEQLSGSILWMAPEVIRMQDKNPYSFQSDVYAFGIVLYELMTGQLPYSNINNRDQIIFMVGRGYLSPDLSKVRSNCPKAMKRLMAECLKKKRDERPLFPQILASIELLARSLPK

Flt4 = molecular target: T7, Flt4 (Homo sapiens, UniProt P35916); test: AlphaScreen kinase assay, Flt4; conditions: read-out: IC50, activity toward kinase Flt4
T7 construct: purchased ProQinase GmbH (Freiburg, Germany)
T7 sequence (P35916 25-1363): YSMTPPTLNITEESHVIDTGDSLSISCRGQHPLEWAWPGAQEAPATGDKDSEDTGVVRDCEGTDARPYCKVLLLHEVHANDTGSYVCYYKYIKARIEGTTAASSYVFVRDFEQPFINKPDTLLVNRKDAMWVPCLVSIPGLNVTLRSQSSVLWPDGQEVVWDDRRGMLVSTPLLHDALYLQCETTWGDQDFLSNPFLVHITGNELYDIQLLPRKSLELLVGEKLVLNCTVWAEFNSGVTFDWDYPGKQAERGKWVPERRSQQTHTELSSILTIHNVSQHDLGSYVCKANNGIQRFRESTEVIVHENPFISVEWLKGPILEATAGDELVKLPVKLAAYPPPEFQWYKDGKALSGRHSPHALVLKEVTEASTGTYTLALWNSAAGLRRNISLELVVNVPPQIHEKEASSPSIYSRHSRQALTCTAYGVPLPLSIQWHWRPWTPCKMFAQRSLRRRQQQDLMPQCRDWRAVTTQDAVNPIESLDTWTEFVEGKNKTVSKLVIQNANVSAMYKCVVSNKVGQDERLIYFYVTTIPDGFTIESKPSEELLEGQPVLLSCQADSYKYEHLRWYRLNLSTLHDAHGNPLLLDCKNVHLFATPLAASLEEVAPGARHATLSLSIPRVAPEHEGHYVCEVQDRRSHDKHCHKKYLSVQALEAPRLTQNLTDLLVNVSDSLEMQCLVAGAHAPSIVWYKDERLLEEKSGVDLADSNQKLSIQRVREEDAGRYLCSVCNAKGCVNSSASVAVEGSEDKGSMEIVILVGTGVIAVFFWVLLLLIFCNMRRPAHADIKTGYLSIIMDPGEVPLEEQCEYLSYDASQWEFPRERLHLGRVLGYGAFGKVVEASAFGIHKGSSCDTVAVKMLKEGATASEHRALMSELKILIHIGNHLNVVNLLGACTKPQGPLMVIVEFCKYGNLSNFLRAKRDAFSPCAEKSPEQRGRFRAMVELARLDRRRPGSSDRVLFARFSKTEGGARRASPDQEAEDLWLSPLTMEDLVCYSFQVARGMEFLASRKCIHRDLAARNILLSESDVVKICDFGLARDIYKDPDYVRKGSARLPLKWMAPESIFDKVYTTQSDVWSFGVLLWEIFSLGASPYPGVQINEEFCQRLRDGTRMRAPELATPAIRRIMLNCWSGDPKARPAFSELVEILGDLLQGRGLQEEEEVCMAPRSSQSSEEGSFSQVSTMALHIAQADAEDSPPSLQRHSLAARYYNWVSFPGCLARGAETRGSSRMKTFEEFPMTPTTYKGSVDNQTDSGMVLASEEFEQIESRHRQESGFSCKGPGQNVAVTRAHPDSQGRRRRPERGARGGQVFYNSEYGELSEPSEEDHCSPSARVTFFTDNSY
Excerpt: AlphaScreen assay was used to screen additional kinases. The assay is similarly dependent on the phosphorylation of a peptide substrate. In this assay, an antibody that recognizes phosphorylated substrate is bound to an acceptor bead. The peptide substrate is attached to biotin, which binds to a donor head that contains streptavidin. Thus phosphorylated substrate is bound by antibody and streptavidin, bringing the donor and acceptor heads into close proximity when kinase is not inhibited. The donor produces singlet oxygen which results in emission from the acceptor when they are in close proximity. Conversely, when kinase is inhibited, the donor and acceptor beads are not associated and the emission from the acceptor is reduced.
AlphaScreen assays were done using compounds dissolved in DMSO to a concentration of 20 mM. The compounds were diluted accordingly to the desired final concentrations in each sample well, using 1:3 serial dilution for a total of 8 concentration points.

FGFR1 = molecular target: T8, FGFR1 (Homo sapiens, UniProt P11362, C488A/C584S); test: AlphaScreen kinase assay, FGFR1; conditions: read-out: IC50, activity toward kinase FGFR
T8 construct: P1351.pET N6 BI-PTP FGFR A458-E765-X C488A, C584S; made in house; host or cells: E. coli (PTP1B co-expressed)
T8 sequence (P11362 458-765 C488A/C584S): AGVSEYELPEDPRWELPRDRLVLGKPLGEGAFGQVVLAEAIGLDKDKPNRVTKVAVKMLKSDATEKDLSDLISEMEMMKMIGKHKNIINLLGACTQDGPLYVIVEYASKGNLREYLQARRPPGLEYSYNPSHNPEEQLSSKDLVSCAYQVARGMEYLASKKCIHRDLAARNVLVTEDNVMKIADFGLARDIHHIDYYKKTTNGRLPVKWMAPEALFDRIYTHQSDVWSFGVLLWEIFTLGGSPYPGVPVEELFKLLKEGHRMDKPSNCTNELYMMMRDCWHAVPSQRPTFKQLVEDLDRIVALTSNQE

Ret = molecular target: T9, Ret (Homo sapiens, UniProt P07949); test: AlphaScreen kinase assay, Ret; conditions: read-out: IC50, activity toward kinase Ret
T9 construct: P1378.pET-SF BI-PTP RET H661-R1012 HIS; made in house
T9 sequence (P07949 with tags, fused parts or gaps): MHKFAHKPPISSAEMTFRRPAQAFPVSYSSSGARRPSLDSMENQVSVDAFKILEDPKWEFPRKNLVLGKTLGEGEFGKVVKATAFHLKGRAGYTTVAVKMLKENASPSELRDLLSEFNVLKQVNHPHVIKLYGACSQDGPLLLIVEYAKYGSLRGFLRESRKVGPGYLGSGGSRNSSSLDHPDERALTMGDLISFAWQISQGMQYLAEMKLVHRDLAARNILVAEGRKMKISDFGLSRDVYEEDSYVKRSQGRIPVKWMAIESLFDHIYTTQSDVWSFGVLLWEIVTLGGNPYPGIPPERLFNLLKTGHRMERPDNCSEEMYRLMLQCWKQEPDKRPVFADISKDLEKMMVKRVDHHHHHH

B-Raf = molecular target: T10, B-Raf (Homo sapiens, UniProt P15056); test: AlphaScreen kinase assay, B-Raf; conditions: read-out: IC50, activity toward kinase B-Raf
T10 construct: purchased Upstate Biotechnology
T10 sequence (P15056 whole entry): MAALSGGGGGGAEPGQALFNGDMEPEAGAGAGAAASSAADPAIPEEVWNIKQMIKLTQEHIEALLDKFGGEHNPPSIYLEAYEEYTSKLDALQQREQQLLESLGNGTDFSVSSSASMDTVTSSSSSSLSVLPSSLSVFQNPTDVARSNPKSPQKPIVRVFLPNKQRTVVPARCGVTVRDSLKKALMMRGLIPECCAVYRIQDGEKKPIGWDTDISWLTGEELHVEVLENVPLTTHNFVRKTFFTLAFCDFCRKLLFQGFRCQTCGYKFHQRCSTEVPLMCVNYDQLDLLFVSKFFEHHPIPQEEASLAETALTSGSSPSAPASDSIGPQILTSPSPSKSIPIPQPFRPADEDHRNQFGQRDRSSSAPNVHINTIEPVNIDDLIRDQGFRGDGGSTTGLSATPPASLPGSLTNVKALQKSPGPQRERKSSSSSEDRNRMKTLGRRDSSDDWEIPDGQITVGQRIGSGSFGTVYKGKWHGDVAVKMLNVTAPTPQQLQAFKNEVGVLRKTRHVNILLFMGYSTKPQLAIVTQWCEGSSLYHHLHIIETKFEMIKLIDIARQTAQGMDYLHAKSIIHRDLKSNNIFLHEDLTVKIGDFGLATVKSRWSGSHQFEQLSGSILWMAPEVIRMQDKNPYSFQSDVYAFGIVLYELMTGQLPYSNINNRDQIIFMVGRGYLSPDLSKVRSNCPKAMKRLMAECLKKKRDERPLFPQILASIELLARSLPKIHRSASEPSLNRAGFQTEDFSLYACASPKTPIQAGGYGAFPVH

c-Raf-1 = molecular target: T11, c-Raf-1 (Homo sapiens, UniProt P04049); test: AlphaScreen kinase assay, c-Raf-1; conditions: read-out: IC50, activity toward kinase c-Raf-1
T11 construct: purchased Upstate Biotechnology

Kit = molecular target: T12, Kit (Homo sapiens, UniProt P10721); test: AlphaScreen kinase assay, Kit; conditions: read-out: IC50, activity toward kinase Kit
T12 construct: P1332.N6 BI PTP KIT M552-K948-X COD; His6 (N); made in house; host or cells: E. coli (PTP1B co-expressed)
T12 sequence (P10721 with tags, fused parts or gaps): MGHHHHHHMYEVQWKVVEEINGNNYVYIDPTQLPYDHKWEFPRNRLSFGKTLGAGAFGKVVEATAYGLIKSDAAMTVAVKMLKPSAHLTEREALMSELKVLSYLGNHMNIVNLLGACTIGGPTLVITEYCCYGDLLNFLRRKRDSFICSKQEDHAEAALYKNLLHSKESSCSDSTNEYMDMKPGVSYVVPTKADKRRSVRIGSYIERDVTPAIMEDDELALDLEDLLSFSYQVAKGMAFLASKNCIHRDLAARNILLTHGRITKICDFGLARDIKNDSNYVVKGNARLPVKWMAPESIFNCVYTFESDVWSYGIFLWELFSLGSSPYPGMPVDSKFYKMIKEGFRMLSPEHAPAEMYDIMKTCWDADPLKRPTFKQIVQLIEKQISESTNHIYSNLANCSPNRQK

Measured: IC50

O=C(c1cccc(O)c1)c1c[nH]c2ncc(-c3cc(F)cc(F)c3)cc12 [Compound P-0074]
≤ 10 µM: Btk | Kdr | Yes | Abl | EphB2 | B-Raf V600E

COc1cccc(C(=O)c2c[nH]c3ncc(Br)cc23)c1F [Compound P-0265, (5-bromo-1H-pyrrolo[2,3-b]pyridin-3-yl)-(2-fluoro-3-methoxy-phenyl)-methanone]
≤ 10 µM: Flt4 | FGFR1 | Ret | B-Raf | c-Raf-1 | Kit | B-Raf V600E

COc1cccc(Cc2c[nH]c3ncc(-c4cc5ccccc5[nH]4)cc23)c1 [Compound P-0335]
≤ 10 µM: Flt4 | FGFR1

O=C(c1ccc(F)cc1F)c1c[nH]c2nccc(-c3cc(F)cc(F)c3)c12 [Compound P-0352]
≤ 10 µM: Flt4 | Ret | Kit | B-Raf V600E

O=C(c1ccccc1)c1c[nH]c2nccc(-c3cc(F)cc(F)c3)c12 [Compound P-0452]
≤ 10 µM: Flt4 | FGFR1 | Ret

O=S(=O)(c1ccccc1)c1c[nH]c2ncccc12 [Compound P-0544]
≤ 10 µM: Flt4

COc1ccc(C(=O)c2c[nH]c3ncc(Br)cc23)cc1 [Compound P-0617]
≤ 10 µM: Flt4 | Kit

CS(=O)(=O)Nc1cccc(-c2cnc3[nH]cc(C(=O)c4ccc(Cl)cc4)c3c2)c1 [Compound P-0813]
≤ 10 µM: Flt4 | Kdr | Ret | Kit

Reference: US8415469B2, “Compounds and methods for kinase modulation, and indications therefor” (Plexxikon Inc., priority 2005, dated 2013)
